Assay results from publication PMC10804683, “Identification of the pyridoxal 5′‐phosphate allosteric site in human pyridox(am)ine 5′‐phosphate oxidase” (Protein Science : A Publication of the Protein Society, 2024).

Columns and labels:
[1] = biological target: T1, human PNPO wild type (Homo sapiens, UniProt Q9NVS9); test: PLP inhibition kinetics of PNP oxidation, wild type; type: biochemical; design: a main form corresponding to the entire protein; made in house; host or cells: E. coli BL21(DE3); settings: Na-HEPES pH 7.6, 2 μM enzyme, PLP 0–16 μM
T1 sequence (Q9NVS9 1-261): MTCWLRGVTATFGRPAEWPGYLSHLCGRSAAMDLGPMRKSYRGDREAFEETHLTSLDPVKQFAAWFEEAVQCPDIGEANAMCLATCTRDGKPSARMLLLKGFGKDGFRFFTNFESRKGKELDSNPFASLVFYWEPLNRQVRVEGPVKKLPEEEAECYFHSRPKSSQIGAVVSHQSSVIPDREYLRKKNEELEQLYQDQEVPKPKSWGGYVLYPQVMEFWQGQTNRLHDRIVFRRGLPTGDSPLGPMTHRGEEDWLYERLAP
Experimental: This is a general inhibition mechanism that takes into account the possibility of PLP binding to both the active and allosteric sites. PLP binding at the active site gives a complete, competitive inhibition, whereas PLP binding at the allosteric site yields a substrate‐enzyme‐PLP ternary complex that is still catalytically active, although k CAT is reduced by a coefficient whose value is around 0.15. A thorough inhibition kinetic characterization was carried out with the wild type, F48A, F48A/E50L/R258L, and F48A/E50L/H248N/R258L PNPO forms, so as to evaluate the effect of the variations on the allosteric properties of the enzyme. The initial velocity of PNP conversion into PLP was measured in Na‐HEPES buffer (in which PLP is allowed to accumulate) by varying substrate concentration at different, fixed exogenous PLP concentrations, using 2 μM enzyme. A series of saturation curves were obtained that were used to fit the Michaelis–Menten equation (Figure 5), acquiring apparent V MAX and K M values as a function of PLP concentration. […]
FIGURE 5 Characterization of PLP inhibition. Upper panels: The initial velocity of the reaction was measured with 2 μM wild type (a), and the F48A (b), F48A/E50L/R258L (c), and F48A/E50L/H248N/R258L (d) PNPO variants, varying PNP concentration while keeping exogenous PLP fixed at different concentrations (0, 0.25, 0.5, 1, 2, 4, 8, and 16 μM). […]

[2] = biological target: T2, apo-PNPO wt (Homo sapiens, UniProt Q9NVS9); test: PLP binding by intrinsic fluorescence, apo wild type; settings: intrinsic fluorescence 335–345 nm, excitation 280 nm, 100 nM enzyme, read-out: Apo-enzyme PLP binding KD^FLUO
T2 construct: a main form corresponding to the entire protein; made in house; host or cells: E. coli BL21(DE3)
T2 sequence (Q9NVS9 1-261): T1 sequence (Q9NVS9 1-261)
Description: PLP binding to PNPO can be detected and quantitatively measured using differential scanning fluorimetry (DSF) and also by measuring FMN fluorescence changes. We had previously attributed DSF changes to PLP binding at the active site, while FMN fluorescence changes were attributed to PLP binding at the allosteric site (Barile et al., [2019], [2020]). Previous experiments carried out with the PNPO R161C variant, affecting a residue that is essential for substrate binding and catalysis (and therefore also for PLP binding at the active site), confirms that DSF measurements only report PLP binding at the active site (Barile et al., [2021]; Table 1). […] We expected to observe no FMN fluorescence changes upon titration of the variants with PLP. However, this was not the case, and the dissociation constant values obtained by observing the FMN fluorescence emission were only up to threefold larger in the variants with respect to wild type PNPO (Figure 3). […] To check the second possibility, we measured intrinsic fluorescence changes of wild type and variant apo‐forms (i.e., without FMN) upon PLP titration. […]
Analyses of PLP binding, based on FMN fluorescence increase observed upon binding of PLP to PNPO, were performed as described in Barile et al. ([2020]). […] Emission spectra were recorded from […], with excitation and emission slits set at 3 and 5 nm, respectively. […]

Cc1ncc(COP(=O)(O)O)c(C=O)c1O [PLP, pyridoxal 5′‐phosphate]
type of inhibition of PNP oxidation by PLP [1]: typical hyperbolic increase of 1/V MAX and the parabolic increase of K M/V MAX
Kd [2]: 0.6 ± 0.05 µM
